In this assay the test system is thermal nociceptive threshold (hindpaw withdrawal latency) in rats with peripheral mononeuropathy. As to the kind of experiment: Hargreaves paw withdrawal (plantar) test in rats with sciatic nerve ligation neuropathy. In kind it is in vivo, rat.

Method: The operator positions the I.R. Generator directly beneath the hind paw of the rat and activates both the I.R. Source and a reaction time counter. When the rat feels pain and withdraws its paw, the I.R. Generator is automatically switched off and the timer stops, determining the withdrawal latency.
The testing was carried out on the eighth day following the operative procedure.
In order to determine a baseline for comparison purposes, rats were subjected to the Hargreaves paw withdrawal test before the subcutaneous injection of the various drugs or drug combinations being tested. The rats were then injected subcutaneously with the particular drug or drug combination being tested and the percentage change in time for the rat to withdraw its paw from the thermal stimulation, in comparison with the baseline, was recorded as a percentage in paw withdrawal latency. […]
After 8 days, thermal nociceptive threshold, as determined by hindpaw withdrawal latency, was measured using a plantar test (Ugo Basile, Comero, Italy). […] This initiated a timing circuit which measured the time interval between the application of the light beam and the withdrawal of the hind paw. […]
Paw withdrawal latency was determined before injection and at different times after injection. […]

Take `C=CCN1CC[C@]23c4c5ccc(O)c4O[C@H]2C(=O)CC[C@@]3(O)[C@H]1C5` [naloxone, 1-N-allyl-14-hydroxynorhydromorphinone]: the “potentiation of sub-clinical doses of buprenorphine” value (Example 1, FIG. 1, low dose naloxone, weight ratios 20:1 and 15:1, subcutaneous, rats n=3) is reported as “can be clearly seen”. Besides, the “potentiation of the sub-clinical doses of buprenorphine” value (Example 2, FIG. 2, buprenorphine 2.5 μg/kg co-administered subcutaneously at weight ratios 5:1 to 30:1, rats n=6) is reported as “can be clearly seen”.

The values are drawn from patent US7402591B2, “Analgesic compositions containing buprenorphine” (Reckitt Benckiser Healthcare (UK) Limited, priority 1999, dated 2008).
